# From ChEMBL document CHEMBL4257508, “The semi-synthesis, biological evaluation and docking analysis of the oxime, hydrazine and hydrazide derivatives of platensimycin” (Medchemcomm, 2018)
# Tests used:
# Escherichia coli = test: Antibacterial activity against Escherichia coli after 16 hrs by agar dilution method; format: functional
# Klebsiella pneumoniae = test: Antibacterial activity against Klebsiella pneumoniae after 16 hrs by agar dilution method; format: functional
# Staphylococcus aureus [1] = test: Antibacterial activity against Staphylococcus aureus ATCC 29213 after 16 hrs by agar dilution method; format: functional; conditions: ATCC 29213, 16 h
# Staphylococcus aureus [2] = test: Antibacterial activity against methicillin-resistant Staphylococcus aureus after 16 hrs by agar dilution method; format: functional
# Staphylococcus aureus [3] = test: Antibacterial activity against methicillin-sensitive Staphylococcus aureus after 16 hrs by agar dilution method; format: functional
# [4] = Stability of the compound in LB agar after 16 hrs by UPLC analysis; format: physicochemical
MIC (Escherichia coli) [µg/mL],MIC (Klebsiella pneumoniae) [µg/mL],Stability [4],Compound,MIC (Staphylococcus aureus [1]) [µg/mL],MIC (Staphylococcus aureus [2]) [µg/mL],MIC (Staphylococcus aureus [3]) [µg/mL]
> 64,> 64,Stable,CC(C)(C)OC(=O)N/N=C1\C=C[C@]23C[C@H]4C[C@H](O[C@@]4(C)C2)[C@H]3[C@]1(C)CCC(=O)Nc1c(O)ccc(C(=O)O)c1O,,,16
> 64,> 64,,COc1ccc(O)c(C(=O)N/N=C2\C=C[C@]34C[C@H]5C[C@H](O[C@@]5(C)C3)[C@H]4[C@]2(C)CCC(=O)Nc2c(O)ccc(C(=O)O)c2O)c1,,,16
> 64,> 64,Stable,C[C@]12C[C@@]34C=C/C(=N\NC(=O)c5ccccc5)[C@@](C)(CCC(=O)Nc5c(O)ccc(C(=O)O)c5O)[C@@H]3[C@H](C[C@@H]1C4)O2,32,,32
> 64,> 64,,C[C@]12C[C@@]34C=C/C(=N\NC(N)=O)[C@@](C)(CCC(=O)Nc5c(O)ccc(C(=O)O)c5O)[C@@H]3[C@H](C[C@@H]1C4)O2,,,8
> 64,> 64,Stable,C[C@]12C[C@@]34C=C/C(=N\NC(=O)Cc5ccccc5)[C@@](C)(CCC(=O)Nc5c(O)ccc(C(=O)O)c5O)[C@@H]3[C@H](C[C@@H]1C4)O2,8,,8
> 64,> 64,,CC(=O)N/N=C1\C=C[C@]23C[C@H]4C[C@H](O[C@@]4(C)C2)[C@H]3[C@]1(C)CCC(=O)Nc1c(O)ccc(C(=O)O)c1O,,,
> 64,> 64,,CC(C)(C)c1ccc(C(=O)N/N=C2\C=C[C@]34C[C@H]5C[C@H](O[C@@]5(C)C3)[C@H]4[C@]2(C)CCC(=O)Nc2c(O)ccc(C(=O)O)c2O)cc1,32,,16
> 64,> 64,,C[C@]12C[C@@]34C=C/C(=N\NC(N)=S)[C@@](C)(CCC(=O)Nc5c(O)ccc(C(=O)O)c5O)[C@@H]3[C@H](C[C@@H]1C4)O2,,,16
> 64,> 64,,C[C@@]1(CCC(=O)Nc2c(O)ccc(C(=O)O)c2O)[C@H](O)CC[C@]23C[C@H]4C[C@H](O[C@@]4(C)C2)[C@H]31,> 64,,> 64
> 64,> 64,,C[C@]12C[C@@]34C=C/C(=N\NC(=O)c5ccc(O)cc5)[C@@](C)(CCC(=O)Nc5c(O)ccc(C(=O)O)c5O)[C@@H]3[C@H](C[C@@H]1C4)O2,,,
> 64,> 64,,C[C@]1(CCC(=O)Nc2c(O)ccc(C(=O)O)c2O)[C@@H]2[C@@H]3C[C@@H]4C[C@@]2(C=C[C@@H]1O)C[C@]4(C)O3,> 64,,> 64

# Second part, the compound before the results:
Compound,MIC (Escherichia coli) [µg/mL],MIC (Klebsiella pneumoniae) [µg/mL],Stability [4],MIC (Staphylococcus aureus [1]) [µg/mL],MIC (Staphylococcus aureus [2]) [µg/mL],MIC (Staphylococcus aureus [3]) [µg/mL]
C[C@]12C[C@@]34CCC(=O)[C@@](C)(CCC(=O)Nc5c(O)ccc(C(=O)O)c5O)[C@@H]3[C@H](C[C@@H]1C4)O2,> 64,> 64,,2,2,2
C[C@]12C[C@@]34C=CC(=O)[C@@](C)(CCC(=O)Nc5c(O)ccc(C(=O)O)c5O)[C@@H]3[C@H](C[C@@H]1C4)O2,,,,0.5,1,0.5
C[C@]12C[C@@]34C=C/C(=N\O)[C@@](C)(CCC(=O)Nc5c(O)ccc(C(=O)O)c5O)[C@@H]3[C@H](C[C@@H]1C4)O2,> 64,> 64,,32,32,16
C[C@@]1(CCC(=O)Nc2c(O)ccc(C(=O)O)c2O)[C@H](O)C=C[C@]23C[C@H]4C[C@H](O[C@@]4(C)C2)[C@H]31,> 64,> 64,,> 64,,> 64
CCO/N=C1\C=C[C@]23C[C@H]4C[C@H](O[C@@]4(C)C2)[C@H]3[C@]1(C)CCC(=O)Nc1c(O)ccc(C(=O)O)c1O,> 64,> 64,,> 64,,> 64
C[C@]12C[C@]34C[C@H]1C[C@H](O2)[C@H]3[C@](C)(CCC(=O)Nc1c(O)ccc(C(=O)O)c1O)/C(=N/O)C[C@@H]4NO,> 64,> 64,,16,16,16
CO/N=C1\C=C[C@]23C[C@H]4C[C@H](O[C@@]4(C)C2)[C@H]3[C@]1(C)CCC(=O)Nc1c(O)ccc(C(=O)O)c1O,> 64,> 64,Stable,> 64,,> 64
C[C@]12C[C@@]34C=C/C(=N\c5ccccc5)[C@@](C)(CCC(=O)Nc5c(O)ccc(C(=O)O)c5O)[C@@H]3[C@H](C[C@@H]1C4)O2,> 64,> 64,Stable,2,2,1
C[C@]1(CCC(=O)Nc2c(O)ccc(C(=O)O)c2O)[C@@H]2[C@@H]3C[C@@H]4C[C@@]2(CC[C@@H]1O)C[C@]4(C)O3,> 64,> 64,,> 64,,> 64
CC(=O)NC[C@H]1CN(c2ccc(N3CCOCC3)c(F)c2)C(=O)O1 [LINEZOLID],,,,1,1,1
C=C1C[C@@]23C=CC(=O)[C@@](C)(CCC(=O)Nc4c(O)ccc(C(=O)O)c4O)[C@@H]2C[C@@H]1CC3 [PLATENCIN],,,,1,1,1
